According to patent US11123398B2, “Chemotherapeutic combinations of cationic antimicrobial peptides and chemotherapeutics” (LYTIX BIOPHARMA AS, priority 2014, dated 2021):
Non-standard residues stand in square brackets, D forms with d. Residues, ends and D or L forms follow the SMILES beside them. No end group written: not given here. dBip = N[C@H](Cc1ccc(-c2ccccc2)cc1)C(=O)O; Dip = N[C@H](C(=O)O)C(c1ccccc1)c1ccccc1

Assays:
IGROV-1/CDDP = assay: MTS cytotoxicity assay, IGROV-1/CDDP; format: cell-based, human; conditions: IC50 resistant / IC50 sensitive line; cisplatin resistance
Protocol: (§1) Tumor cells were plated in 96-well flat-bottom microtitration plates (Nunc, Dutscher, Brumath, France) and incubated at 37° C. for 24 hours before treatment in 190 μl of drug-free culture medium supplemented or not with 10% FBS for adherent or suspension growing cell lines, respectively.
(§2) The adherent cell lines were washed once with 200 μl FBS-free culture medium before treatment. Tumor cells were incubated for 4 hours with 10 concentrations of compounds in ¼ dilution step with a top dose of 400 μM (range 4×10^−4 to 4×10^−10 M), with 1% (final concentration) Triton X-100 as positive control and FBS-free culture medium as negative control. The cells (190 μl) were incubated in a 200 μl final volume of FBS-free culture medium containing test substances at 37° C. under 5% CO2.
(§3) Three independent experiments were performed, each concentration being tested in quadruplicate. Control cells were treated with vehicle alone. At the end of treatments, the cytotoxic activity was evaluated by a MTS assay (see § 3.3.).
(§4) Like MTT, MTS is bioreduced by cells into a formazan product that is directly soluble in culture medium without processing, unlike MTT.
(§5) At the end of the cells treatment, 40 μl of a 0.22 μm filtered freshly combined solution of MTS (20 ml at 2 mg/ml, Ref G1111, Batch 235897, Exp March 2009, Promega, Charbonnières, France) and PMS (1 ml at 0.92 mg/ml, Ref P9625, Batch 065K0961, Sigma) in Dulbecco's Phosphate Buffered Saline (DPBS, Ref 17-513Q, Batch 6MB0152, Cambrex), were added in each well. Culture plates were incubated for 2 h at 37° C. Absorbency (OD) were measured at 490 nm in each well using VICTOR^3™ 1420 multilabeled counter (Wallac, PerkinElmer, Courtaboeuf, France).
(§6) IC50: drug concentration to obtain a 50% inhibition of cell proliferation.
(§7) The dose-response curves were plotted using XLFit 3 (IDBS, United Kingdom). The IC50 determination values were calculated using the XLFit 3 software from semi-log curves. Individual IC50 determination values as well as mean and SD values were generated.
(§8) Resistance index was calculated using the following formula: […]
(§9) Resistance index was calculated for each compound for each couple of sensitive and resistant cell lines. Individual resistance index was calculated when IC50 values of both sensitive and corresponding resistant cell lines were determined within same experiment. In addition, resistance index was also calculated ratio of mean IC50 values obtained during three independent experiments.

HL-60/ADR = assay: MTS cytotoxicity assay, HL-60/ADR; format: cell-based, human; conditions: IC50 resistant / IC50 sensitive line; doxorubicin resistance
Protocol: as §1, §2, §3, §4, §5, §6, §7, §8, §9

T-47D cell line = format: cell-based, human; conditions: 4 h
Protocol: as §1, §2, §3, §4, §5, §6, §7

Hep G2 cell line = format: cell-based, human; conditions: 4 h
Protocol: as §1, §2, §3, §4, §5, §6, §7

[1] = system: panel of 37 human cancer cell lines; format: cell-based; conditions: for IC50: 4 h; for IC50 range against 37 human cancer cell lines: conclusion
Protocol: as §2, with “Tumor cells were incubated for 4 hours with 10 concentrations of” left out
as §3, §4, §5, §6, §7

Raji cell line = format: cell-based, human; conditions: 4 h
Protocol: (§10) Tumor cells were plated in 96-well flat-bottom microtitration plates (Nunc, Dutscher, Brumath, France) and incubated at 37° C. for 24 hours before treatment in 190 μl of drug-free and FBS-free culture medium.
as §2, with “Tumor” for “The adherent cell lines were washed once with 200 μl FBS-free culture medium before treatment. Tumor”, “[…]” for “4×10^−10”
(§11) Three independent experiments were performed, each concentration being issued from quadruplicate. Control cells were treated with vehicle alone. At the end of treatments, the cytotoxic activity was evaluated by a MTS assay (see § 3.3 below).
as §4, §5
(§12) 4.1. IC50 Data was Determined as in Example 1

Hs 445 cell line = format: cell-based, human; conditions: 4 h
Protocol: as §10
as §2, with “Tumor” for “The adherent cell lines were washed once with 200 μl FBS-free culture medium before treatment. Tumor”, “[…]” for “4×10^−10”
as §11, §4, §5, §12

MCF-7/mdr = assay: MTS cytotoxicity assay, MCF-7/mdr; format: cell-based, human; conditions: IC50 resistant / IC50 sensitive line; doxorubicin resistance
Protocol: as §1, §2, §3, §4, §5, §6, §7, §8, §9

[2] = system: panel of 10 lymphoma cell lines; format: cell-based, human; conditions: conclusion
Protocol: as §10
[…] compounds in ¼ dilution step with a top dose of 400 μM (range 4×10^−4 to […]), with 1% (final concentration) Triton X-100 as positive control and FBS-free culture medium as negative control. The cells (190 μl) were incubated in a 200 μl final volume of FBS-free culture medium containing test substances at 37° C. under 5% CO2.
as §11, §4, §5, §12

CCRF-CEM/VLB = assay: MTS cytotoxicity assay, CCRF-CEM/VLB; format: cell-based, human; conditions: IC50 resistant / IC50 sensitive line
Protocol: as §1
as §2, with “The cells (190 μl) were incubated in a 200 μl final volume of FBS-free culture medium containing test substances at 37° C. under 5% CO2.” left out
Three independent experiments were performed, each concentration being tested in quadruplicate. […] At the end of treatments, the cytotoxic activity was evaluated by a MTS assay (see § 3.3.). […]
as §5, with “Culture plates were incubated for 2 h at 37° C.” left out, “France). […]” for “France).”
as §8

U-87 MG cell line = format: cell-based, human; conditions: 4 h
Protocol: as §1, §2, §3, §4, §5, §6, §7

A375 cells = assay: Confocal microscopy with fluorescence-labeled peptide (internalization); format: cell-based, human; conditions: 3 μM and 1.5 μM, 30-60 min
Protocol: Subconfluential A375 cells were seeded at 8,000 cells/well as above, and transfected on the second day using the Lipofectamine LTX with Plus transfection reagents (Invitrogen) following the manufacturer's protocol. The mitochondria were labeled using the pDsRed2-Mito, and the nucleus was labeled using the GFP-Histon2B plasmid (Imaging Platform, University of Tromsø). A day after transfection, cells were washed twice with serum-free RPMI, and treated at different concentration and incubation periods with LTX-315 Pacific Blue or LTX-328 Pacific Blue. […] Control cells were treated with unlabeled LTX-315 and also with serum-free RPMI only. After incubation, cells were fixed with 4% paraformaldehyde in PBS, and the wells were covered with Prolong Gold antifade (Invitrogen). Cells were further analyzed by use of a Leica TCS SP5 confocal microscope, with a […] objective. Pacific Blue, GFP and Ds Red were excited using UV, with 488 and 561 lasers, and fluorescence channels were sequentially detected using the following band passes: UV: 420-480 nm (with attenuation), 488: 501-550 nm and 561: 576-676 nm.

IC50 (T-47D cell line) [µM] | IC50 (Hep G2 cell line) [µM] | IC50 [1] [µM] | IC50 range against 37 human cancer cell lines [1] | IC50 (Raji cell line) [µM] | IC50 (Hs 445 cell line) [µM] | IC50 range against 10 human lymphoma cell lines [2] | IC50 (U-87 MG cell line) [µM] | Molecule | Resistance index (RI), IGROV-1/CDDP (IGROV-1/CDDP) | Resistance index (RI), HL-60/ADR (HL-60/ADR) | Resistance index (RI), MCF-7/mdr (MCF-7/mdr) | Resistance index (RI), CCRF-CEM/VLB (CCRF-CEM/VLB) | Internalization of Pacific Blue-labeled peptide (A375 cells)
3.46 ± 0.22 | 16.6 ± 3.15 | 7.58 ± 2.79 | micromolar to ten micromolar range | 11.3 ± 3.42 | 2.22 | micromolar range | – | N=C(N)NCCC[C@H](NC(=O)[C@H](Cc1c[nH]c2ccccc12)NC(=O)[C@H](Cc1c[nH]c2ccccc12)NC(=O)[C@H](CCCNC(=N)N)NC(=O)[C@H](CCCNC(=N)N)NC(=O)[C@@H](NC(=O)[C@H](Cc1c[nH]c2ccccc12)NC(=O)[C@H](CCCNC(=N)N)NC(=O)[C@@H](N)CCCNC(=N)N)C(c1ccccc1)c1ccccc1)C(N)=O [LTX-320, R-R-W-Dip-R-R-W-W-R-NH2] (H-RRW[Dip]RRWWR-NH2; N-terminus assumed) | 0.49 | 0.90 | 1.19 | – | –
2.43 ± 0.34 | – | 8.17 ± 3.2 | micromolar to ten micromolar range | 8.7 ± 1.7 | 2.46 | micromolar range | 16.9 ± 1.18 | NCCCC[C@@H](N)C(=O)N[C@H](CCCCN)C(=O)N[C@H](Cc1ccc(-c2ccccc2)cc1)C(=O)N[C@H](Cc1c[nH]c2ccccc12)C(=O)N[C@H](CCCCN)C(=O)N[C@H](CCCCN)C(=O)N[C@H](Cc1c[nH]c2ccccc12)C(=O)N[C@H](Cc1c[nH]c2ccccc12)C(=O)N[C@H](CCCCN)C(N)=O [LTX-329, k-k-bip-w-k-k-w-w-k-NH2] (H-[dK][dK][dBip][dW][dK][dK][dW][dW][dK]-NH2; N-terminus assumed) | 0.46 | 0.80 | 1.07 | 0.76 | –
– | – | – | – | – | – | – | – | K-A-Q-Dip-Q-K-Q-A-W-NH2 (KAQ[Dip]QKQAW-NH2; N-terminus assumed; SMILES C[C@H](NC(=O)[C@H](CCC(N)=O)NC(=O)[C@H](CCCCN)NC(=O)[C@H](CCC(N)=O)NC(=O)[C@@H](NC(=O)[C@H](CCC(N)=O)NC(=O)[C@H](C)NC(=O)[C@@H](N)CCCCN)C(c1ccccc1)c1ccccc1)C(=O)N[C@@H](Cc1c[nH]c2ccccc12)C(N)=O) [LTX-328, reference compound] | – | – | – | – | did not demonstrate any internalization at any concentration or incubation time tested
